Source: article PMC8151276, “An Integrated Approach toward NanoBRET Tracers for Analysis of GPCR Ligand Engagement” (Molecules, 2021)

Biological target: T1, DRD4 (Homo sapiens, UniProt P21917)
T1 construct: purchased Promega (in-house HiBiT-GPCR construct library, NanoBRET)
T1 sequence (P21917 1-419): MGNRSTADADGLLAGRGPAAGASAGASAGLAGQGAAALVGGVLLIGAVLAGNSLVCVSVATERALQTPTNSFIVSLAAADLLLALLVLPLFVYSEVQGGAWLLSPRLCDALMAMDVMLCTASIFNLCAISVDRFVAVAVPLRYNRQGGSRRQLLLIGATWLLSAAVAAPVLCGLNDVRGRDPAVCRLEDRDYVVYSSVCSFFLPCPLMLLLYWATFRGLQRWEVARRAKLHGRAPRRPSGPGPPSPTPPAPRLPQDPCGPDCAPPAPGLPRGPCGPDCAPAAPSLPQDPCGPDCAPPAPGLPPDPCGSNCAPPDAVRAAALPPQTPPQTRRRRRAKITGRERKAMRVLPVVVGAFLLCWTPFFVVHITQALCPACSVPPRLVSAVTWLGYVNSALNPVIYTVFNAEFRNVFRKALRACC
Test: NanoBRET screen HiBiT-DRD4 in HEK293
Assay type: binding
Method: Each tracer candidate was screened across the entire library of HiBiT-GPCR constructs using NanoBRET as the detection modality. As depicted in Figure 4A, the specificity of interactions was evaluated through decrease in BRET due to competitive displacement of a bound tracer by excess parental compound. Each tracer was analyzed for binding to each HiBiT-GPCR fusion in the absence and in the presence of competing parental compound. Briefly, HEK293 cells were transfected with HiBiT-GPCR constructs diluted into promoterless DNA to reduce expression and maximize translocation to the cell surface. Each tracer candidate was then screened at concentrations of 1 μM and 0.1 μM across cells expressing these fusions. Cells were treated for 1.5 h with tracer either alone or in the presence of 20 μM competing parental compound (i.e., control). BRET was measured upon addition of purified LgBiT and subsequent complementation with HiBiT genetically fused to a GPCR. The specificity of interactions was assessed through a decrease in BRET signal due to competitive displacement of the bound tracer. To further gauge the robustness of these interactions, the fold response over the control (i.e., BRETtracer/BRETcontrol) was calculated. We chose a 1.5-fold response, which translates to ≥7-fold signal over noise as the minimal threshold required to score an interaction as positive.
HiBiT-GPCR DNA constructs were diluted in 10 mM Tris pH 8 to a final concentration of 0.01 μg/μL, arrayed in 96-well plates and stored at −20 °C. For transfection, HEK293 cells were suspended in Opti-MEM (without phenol red) supplemented with 2% fetal bovine serum (Seradigm) and 100 units/mL penicillin–streptomycin (Gibco) at a final concentration of 220,000 cells/mL and dispensed into white 96-well plates at 90 μL/well. Subsequent transfections and screens were carried using an Agilent Bravo Automated Liquid Handling Platform. First, the 96-well HiBiT DNA arrays were diluted 25-fold in Opti-MEM (without serum or phenol red) to a final concentration of 0.0004 μg/μL and 20 μL of the diluted DNAs were transferred into new 96-well plates. Next, promoterless carrier DNA (1 μg/μL) was diluted 25-fold (0.04 μg/μL) and then dispensed into the diluted arrays at 20 μL/well. Following brief mixing, Viafect transfection reagent (Promega) diluted 16-fold into Opti-MEM was dispensed into the plates at 40 μL/well. After mixing by pipetting, plates were incubated for 10 min on the pipetting station deck. The DNA-transfection reagent complexes were then added to plates containing cells. To facilitate the screen, 10 μL of DNA-transfection reagent complexes were added in duplicates to the top 4 and bottom 4 rows, resulting in two identical 48-well arrays per plate. Plates with transfected cells were incubated for 18–20 h at 37 °C/5% CO2. A screen of each tracer across the entire library using two different concentrations requires duplicate plates of transfected cells. Depending on the number of tracers being screened, transfections can be scaled up using the same ratios. The next day, for each tracer, four 20× screening solutions in tracer dilution buffer (Promega) were prepared: two duplicates at final concentration of 20 μM and two duplicates at a final concentration of 2 μM. […] The four resulting solutions were diluted 4-fold in Opti-MEM without serum or phenol red to generate 5× solutions (5 µM and 0.5 µM tracer +/− 100 μM competing compound). To screen the library, a BioTek MultiFlo FX liquid dispenser was used to dispense 22.5 µL of tracer solution to the top 4 rows and 22.5 µL tracer + competing compound solution to the 4 bottom rows. Plates were briefly mixed on an orbital shaker and incubated for 1.5 h at room temperature. […] Plates were briefly mixed on an orbital shaker and incubated for 15 min to allow complementation.

SMILES | NanoBRET Fold Response (DRD4, tracer 0.1μM) | NanoBRET Fold Response (DRD4, tracer 1μM) | further results
Cc1nc2n(c(=O)c1CCN1CCC(c3noc4cc(F)ccc34)CC1)CCCC2OC(=O)NCCOCCOCCOCCOCCNC(=O)CCc1ccc2n1[B-](F)(F)[N+]1=C(c3ccc[nH]3)C=CC1=C2 (centres unmarked) [Risperidone-2-NB590] | 1.55 | 3.40 | 
CCOC(=O)c1cc(C#N)c(N2CCC(C(=O)NS(=O)(=O)Cc3ccccc3/C=C/C(=O)NCCNC(=O)CCc3ccc4n3[B-](F)(F)[N+]3=C(c5ccc[nH]5)C=CC3=C4)CC2)nc1C [AZD1283-1-NB590] |  |  | NanoBRET Fold Response (DRD4, 0.1μM): 1.05; NanoBRET Fold Response (DRD4, 1μM): 1.13
Cc1cc2c(s1)Nc1ccccc1N=C2N1CCN(CCCNC(=O)CCOCCOCCOCCOCCNC(=O)CCc2ccc3n2[B-](F)(F)[N+]2=C(c4ccc[nH]4)C=CC2=C3)CC1 [Olanzapine-a-2-NB590] | 1.68 | 2.27 | 
COc1ccccc1N1CCN(CCCCN2C(=O)c3ccc(CNC(=O)CCOCCNC(=O)c4ccc(CNC(=O)CCc5ccc6n5[B-](F)(F)[N+]5=C(c7ccc[nH]7)C=CC5=C6)cc4)cc3C2=O)CC1 [NAN-190-3-NB590] | 1.23 | 1.92 | 
CC(C)N(CC[C@H](c1ccccc1)c1cc(CCNC(=O)CCOCCOCCOCCOCCNC(=O)CCc2ccc3n2[B-](F)(F)[N+]2=C(c4ccc[nH]4)C=CC2=C3)ccc1O)C(C)C [Tolterodine-2-NB590] | 0.99 | 0.96 | 
CN(C)CCC=C1c2ccccc2CCc2ccc(C(=O)NCCNC(=O)CCOCCOCCOCCOCCNC(=O)CCc3ccc4n3[B-](F)(F)[N+]3=C(c5ccc[nH]5)C=CC3=C4)cc21 [Amitriptyline-b-2-NB590] |  |  | NanoBRET Fold Response (tracer at 0.1μM, listed as amitriptyline-b-2-NB590): 1.05
O=C(CCOCCOCCOCCOCCNC(=O)CCc1ccc2n1[B-](F)(F)[N+]1=C(c3ccc[nH]3)C=CC1=C2)NCCCN1CCN(C2=Nc3ccccc3Oc3ccc(Cl)cc32)CC1 [Loxapine-a-2-NB590] | 1.57 | 2.56 | 
CN(C)CCC=C1c2ccccc2CCc2ccc(C(=O)NCCNC(=O)CCOCCOCCOCCOCCNC(=O)CCc3ccc4n3[B-](F)(F)[N+]3=C(c5ccc[nH]5)C=CC3=C4)cc21 [Amitriptyline-a-2-NB590] |  |  | NanoBRET Fold Response (tracer at 0.1μM): 1.07; NanoBRET Fold Response (tracer at 1μM): 1.09
O=C(CCc1ccc2n1[B-](F)(F)[N+]1=C(c3ccc[nH]3)C=CC1=C2)NCCOCCOCCNC(=O)OCCOCCN1CCN(C2=Nc3ccccc3Sc3ccccc32)CC1 [Quetiapine-a-2-NB590] | 1.05 | 1.49 | 
COc1ccccc1N1CCN(CCCCN2C(=O)c3ccc(CNC(=O)CCOCCOCCOCCOCCNC(=O)CCc4ccc5n4[B-](F)(F)[N+]4=C(c6ccc[nH]6)C=CC4=C5)cc3C2=O)CC1 [NAN-190-2-NB590] | 1.09 | 1.80 | 
N#CN/C(=N\CCNC(=O)c1ccc(N)cc1)NCCCOc1cccc(CN2CCCCC2)c1 [Aminopotentidine (unmodified)] |  |  | NanoBRET Fold Response (DRD4, other tracers/Aminopotentidine (unmodified), 0.1μM): 1.24; NanoBRET Fold Response (DRD4, other tracers/Aminopotentidine (unmodified), 1μM): 1.17
COc1ccc2[nH]c(-c3ccc(CNC(=O)CCOCCOCCOCCOCCNC(=O)CCc4ccc5n4[B-](F)(F)[N+]4=C(c6ccc[nH]6)C=CC4=C5)cc3)c(CCNC(C)=O)c2n1 [AzomelatoninICO9-2-NB590] |  |  | NanoBRET Fold Response (0.1μM tracer): 0.59; NanoBRET Fold Response (1μM tracer): 0.88
O=C(CCOCCOCCOCCOCCNC(=O)CCc1ccc2n1[B-](F)(F)[N+]1=C(c3ccc[nH]3)C=CC1=C2)NCCCN1CCN(C2=Nc3cc(Cl)ccc3Nc3ccccc32)CC1 [Clozapine-a-2-NB590] |  |  | NanoBRET Fold Response (DRD4, 0.1μM tracer): 3.46; NanoBRET Fold Response (DRD4, 1μM tracer): 3.88
CCCn1c(=O)c2[nH]c(-c3ccc(OCC(=O)NCCNC(=O)CCOCCNC(=O)c4ccc(CNC(=O)CCc5ccc6n5[B-](F)(F)[N+]5=C(c7ccc[nH]7)C=CC5=C6)cc4)cc3)nc2n(CCC)c1=O [XAC-3-NB590] | 1.27 | 0.82 | 
O=C(CCc1ccc2n1[B-](F)(F)[N+]1=C(c3ccc[nH]3)C=CC1=C2)NCc1ccc(C(=O)NCCOCCOCCNCC(O)COc2cccc3ccccc23)cc1 (centres unmarked) [Propranolol-3-NB590] |  |  | NanoBRET Fold Response (DRD4, 0.1μM): 0.84; NanoBRET Fold Response (DRD4, 1μM): 0.99
O=C(CCc1ccc2n1[B-](F)(F)[N+]1=C(c3ccc[nH]3)C=CC1=C2)NCc1ccc(C(=O)NCCOCCC(=O)N[C@@H]2CC[C@@]3(O)[C@H]4Cc5ccc(O)c6c5[C@@]3(CCN4CC3CC3)[C@H]2O6)cc1 [Naltrexone-3-NB590] | 0.82 | 1.11 | 
CN(CCC=C1c2ccccc2CCc2ccccc21)C(=O)CCOCCOCCOCCOCCNC(=O)CCc1ccc2n1[B-](F)(F)[N+]1=C(c3ccc[nH]3)C=CC1=C2 [Amitriptyline-e-2-NB590] |  |  | NanoBRET Fold Response (tracer at 1μM): 1.01
N#CN=C(NCCCOc1cccc(CN2CCCCC2)c1)NCCNC(=O)CCOCCOCCOCCOCCNC(=O)CCc1ccc2n1[B-](F)(F)[N+]1=C(c3ccc[nH]3)C=CC1=C2 [Aminopotentidine-2-NB590] | 1.00 | 0.98 | 
COc1ccc2c(n1)c(CCNC(C)=O)cn2CCNC(=O)CCc1ccc2n1[B-](F)(F)[N+]1=C(c3ccc[nH]3)C=CC1=C2 [Azamelatonin-1-NB590] |  |  | NanoBRET Fold Response (0.1μM tracer): 0.77; NanoBRET Fold Response (1μM tracer): 1.03
CC(C)N(CC[C@H](c1ccccc1)c1cc(CCNC(=O)c2ccc(CNC(=O)CCc3ccc4n3[B-](F)(F)[N+]3=C(c5ccc[nH]5)C=CC3=C4)cc2)ccc1O)C(C)C [Tolterodine-BZ-NB590] | 0.94 | 1.09 | 
